This is an account of results in ChEMBL document CHEMBL1201862, “PubChem BioAssay data set” (2004).

Where “and” joins values, the source holds several entries; their conditions need not be identical. Identical values can stand only once.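 Interpolation was linear, between the two tested concentrations surrounding the appropriate level; five concentrations were tested over 48 hours in 96-well plates. Abbreviation: GI50, concentration required for 50% inhibition of growth.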 Calls of active or inactive are those of the source. Cut-off read from the data, not from the text of the source: active = GI50 up to about 1.1 µM and inactive = higher.

Some test systems named below: Malme-3M; NCI/ADR-RES; SNB-75; DU-145; HOP-92; UACC-257; SK-MEL-2; COLO 205; MDA-MB-435; OVCAR-4; U-251; RXF 393; HT-29; HCT-116; NCI-H23; Hs-578T; 786-0; CAKI-1; M19-MEL.
Common to all, as to assay: inhibition of tumour cell growth, NCI panel, 48 h

Regarding `CO[C@@H]1C[C@H](OC(N)=O)[C@@H]2C=C[C@@H]3/C=C(C)/C=C/[C@@H](C)[C@H]([C@H](C)[C@H](O)[C@@H](C)NC(C)=O)OC(=O)/C=C/C=C(C)\C=C\[C@]3(C)[C@@H]2C1`, the GI50 with Malme-3M is < 0.01 µM (active); in the test on NCI/ADR-RES, < 0.01 µM (active); in the test with SNB-75, < 0.01 µM (active); with DU-145, < 0.01 µM (active); in the test with HOP-92, < 0.01 µM (active); in the test with UACC-257, 0.0354 µM (active). Further, the GI50 in the test with SK-MEL-2 was 1.28 µM (inactive); with COLO 205, < 0.01 µM (active); in the test with MDA-MB-435, < 0.01 µM (active); in the test with OVCAR-4, < 0.01 µM (active); in the test on U-251, < 0.01 µM (active); with RXF 393 it was < 0.01 µM (active). In addition, the GI50 is < 0.01 µM (active) in the test on HT-29; < 0.01 µM (active) with HCT-116; 0.522 µM (active) in the test on NCI-H23; < 0.01 µM (active) with Hs-578T; < 0.01 µM (active) in the test with 786-0; < 0.01 µM (active) in the test on CAKI-1.

Take `Cc1ccc(S(=O)(=O)N2C[C@](O)(c3ccccc3)[C@H]2C)cc1`: the GI50 with Malme-3M is > 100 µM (inactive); in the test on NCI/ADR-RES, > 100 µM (inactive); in the test with SNB-75 it was 89.3 µM (inactive); in the test with DU-145 it was > 100 µM (inactive); in the test on HOP-92, > 100 µM (inactive); in the test with UACC-257, > 100 µM (inactive). For the same compound, the GI50 in the test on SK-MEL-2, with COLO 205, with MDA-MB-435, with OVCAR-4, in the test on U-251 and in the test with RXF 393 was > 100 µM (inactive) each time. Besides, the GI50 in the test with HT-29, with HCT-116, with NCI-H23, with Hs-578T, in the test on 786-0 and with CAKI-1 was > 100 µM (inactive) in each case.

On to `CCOC(=O)CCC1(C(=O)O[C@@H]2C[C@H](C)CC[C@H]2C(C)C)CCCCC1=O` (some centres undefined), for which the GI50 is > 100 µM (inactive) in the test on Malme-3M; 55.2 µM (inactive) in the test on NCI/ADR-RES; 42 µM (inactive) with SNB-75; > 100 µM (inactive) with DU-145; 52.4 µM (inactive) in the test on HOP-92; 23.3 µM (inactive) with UACC-257. The GI50 in the test with SK-MEL-2 is > 100 µM (inactive); with COLO 205, 65 µM (inactive); in the test with MDA-MB-435 it was 74.1 µM (inactive); in the test on OVCAR-4 it was 61.2 µM (inactive); in the test on U-251, 63.2 µM (inactive); in the test with RXF 393 it was 55.7 µM (inactive). In addition, the GI50 was 43.3 µM (inactive) in the test with HT-29; 41.7 µM (inactive) in the test with HCT-116; 74.8 µM (inactive) with NCI-H23; > 100 µM (inactive) in the test on Hs-578T; > 100 µM (inactive) with 786-0; 40.7 µM (inactive) with CAKI-1.

For the compound `CCOC(=O)c1cc2c([nH]1)c(OC(C)=O)cc1c2ccn1Cc1ccccc1`, the GI50 in the test with Malme-3M, in the test on NCI/ADR-RES, in the test with SNB-75, with DU-145, in the test with HOP-92 and in the test with UACC-257 was > 100 µM (inactive) each time. For the same compound, the GI50 with SK-MEL-2, in the test on COLO 205, in the test with MDA-MB-435, with OVCAR-4, in the test with U-251 and with RXF 393 was > 100 µM (inactive) throughout. For the same compound, the GI50 in the test with HT-29, in the test with HCT-116, in the test on NCI-H23, in the test with Hs-578T, with 786-0 and in the test on CAKI-1 was > 100 µM (inactive) throughout.

Take `O=C(O)CCC(C(=O)O)N1C(=O)c2ccccc2C1=O` (centres undefined): the GI50 in the test on Malme-3M, in the test on NCI/ADR-RES, in the test on SNB-75, in the test on DU-145, in the test on HOP-92 and in the test on UACC-257 was > 100 µM (inactive) in each case. Further, the GI50 in the test with SK-MEL-2, with COLO 205, in the test on MDA-MB-435, in the test on OVCAR-4, in the test with U-251 and with RXF 393 was > 100 µM (inactive) throughout. In addition, the GI50 in the test with HT-29, in the test with HCT-116, in the test with NCI-H23, with Hs-578T, in the test on 786-0 and with CAKI-1 was > 100 µM (inactive) in each case.

As to `CN1C(=O)C(=CN)C(=O)N(C)C1=O`, the GI50 in the test on Malme-3M, in the test on SNB-75, with HOP-92, with UACC-257, in the test on SK-MEL-2 and in the test with OVCAR-4 was > 100 µM (inactive) in each case. The GI50 in the test on U-251, in the test on RXF 393, with HT-29, in the test with NCI-H23, with 786-0 and in the test on CAKI-1 was > 100 µM (inactive) throughout. Further, the GI50 with M19-MEL was > 100 µM (inactive).

`COC1OC(C(=O)CP(=O)(OC)OC)C(OCc2ccccc2)C(OCc2ccccc2)C1OCc1ccccc1` (centres undefined): the GI50 with Malme-3M is 17.9 µM (inactive) and 19.2 µM (inactive); in the test on NCI/ADR-RES, 18.9 µM (inactive) and 16.4 µM (inactive); in the test on SNB-75, 14.6 µM (inactive) and 16 µM (inactive); with DU-145 it was 17.9 µM (inactive) and 16.5 µM (inactive); with HOP-92, 17.9 µM (inactive) and 19.1 µM (inactive); in the test with UACC-257 it was 16.5 µM (inactive) and 15.7 µM (inactive). The GI50 with SK-MEL-2 is 16.5 µM (inactive) and 17.1 µM (inactive); in the test on COLO 205 it was 18.5 µM (inactive) and 18.2 µM (inactive); in the test on MDA-MB-435, 18.7 µM (inactive) and 17 µM (inactive); in the test on OVCAR-4 it was 14.7 µM (inactive) and 20.7 µM (inactive); in the test with U-251 it was 16.7 µM (inactive) and 15.6 µM (inactive); in the test with RXF 393, 14.8 µM (inactive) and 12.1 µM (inactive). Also, the GI50 with HT-29 is 17.2 µM (inactive) and 16 µM (inactive); in the test with HCT-116, 16.6 µM (inactive) and 15.5 µM (inactive); in the test on NCI-H23, 15.9 µM (inactive) and 17.5 µM (inactive); with Hs-578T it was 25.6 µM (inactive) and 22.1 µM (inactive); with 786-0, 17.6 µM (inactive) and 17.3 µM (inactive); in the test with CAKI-1, 16.3 µM (inactive) and 19.6 µM (inactive).

`CC(=O)c1cc2c(s1)C(=O)c1ccsc1C2=O`: the GI50 in the test with Malme-3M is 0.146 µM (active); with NCI/ADR-RES it was 0.378 µM (active); with SNB-75, 0.192 µM (active); in the test on DU-145, 0.309 µM (active); in the test with HOP-92, 1.56 µM (inactive); in the test on UACC-257 it was 0.132 µM (active). For the same compound, the GI50 with SK-MEL-2 was 0.621 µM (active); with COLO 205, 19.1 µM (inactive); in the test on MDA-MB-435 it was 0.0713 µM (active); in the test on OVCAR-4, 1.26 µM (inactive); in the test with U-251, 0.233 µM (active); in the test with RXF 393, 0.244 µM (active). For the same compound, the GI50 in the test on HT-29 is 1.85 µM (inactive); in the test on HCT-116, 0.292 µM (active); in the test on NCI-H23, 0.167 µM (active); in the test on Hs-578T it was 0.158 µM (active); with 786-0 it was 1.92 µM (inactive); with CAKI-1, 2.12 µM (inactive).
